Literature values, collected in patent publication US5358712A, “Radiopharmaceutical agents for the detection of Alzheimer's disease” (Regents of the University of Minnesota, priority 1993, dated 1994).
Entries after “also recorded” stand apart in the source; their conditions may differ.

Tested on: vesicular acetylcholine storage
Conditions: cited from earlier work; for vesamicol-like inhibitory activity (in words): Kaufman et al 1988

Row | Compound | vesamicol-like inhibitory activity (in words) (Rogers et al 1989) | potency relative to vesamicol (Rogers et al 1989) | increase in activity relative to ethanol analog 4 (addition of an α-methyl group)
1 | OCCN1CCC(c2ccccc2)CC1 [Compound 4] | weak inhibitors; also recorded: very weak inhibitor | two hundred and fifty times less potent | 
2 | CC(O)CN1CCC(c2ccccc2)CC1 (stereo not shown) [Compound 14] | weak inhibitors |  | 
3 | CC(O)CN1CCC(c2ccccc2)CC1 (stereo not shown) [Compound 14b] |  |  | thirty-fold increase in activity
